Reference: USRE37556E1, “Superoxide radical inhibitor” (Otsuka Pharmaceutical Co., Ltd., priority 1990, dated 2002)

Key:
[1] = tested on: human neutrophilic leukocytes; experiment: Inhibition of superoxide radical (O2-) generation in FMLP-stimulated human neutrophilic leukocytes (ferricytochrome C method); format: cell-based; conditions: Homo sapiens, Leukocyte
Summary of the method: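 Neutrophils were isolated from healthy adult blood by dextran-hypotonic treatment and Ficoll-Paque gradient. Compounds in DMSO were pre-incubated with the cells at 37° C before FMLP stimulation. O2− generation was measured by ferricytochrome C reduction.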

[2] = tested on: heart muscle; experiment: Inhibition of heart muscle necrosis in rat caused by clogging of the coronary artery and subsequent blood reperfusion (tissue CPK); format: in vivo; conditions: male SD rats; 6 mg/kg intravenously 5 minutes before ligature; ischemic area 2 hours after reperfusion; p < 0.05 vs control
Method: 1 (4) Activity for inhibiting the heart muscle necrosis in rat caused by clogging of the coronary artery and subsequent blood reperfusion
Male rats of SD strain (7-10 week old, 250-350 g) were used in this test. The activity of creatine phosphokinase (CPK) in tissue was used as an indication of heart muscle necrosis.
A test compound was dissolved in a small amount of 1N aqueous NaOH solution, then diluted with a physiological saline solution, and administered at a dose of 1 ml/kg of body weight. Each rat was anesthetized with pentobarbital and thoracotomized under artifical respiration; the descending branch before left coronary artery was ligated with a piece of silk string for 12 minutes; then, the blood was reperfused. Thereafter, the thoracotomized chest was closed and the rat was waken from anesthesia. 2 hours after reperfusion, the heart was enucleated under anesthesia; only the ischemic area was homogenized; and the activity of CPK contained therein was measured. The test compound was intravenously administered at a dose of 6 mg/kg 5 mintues before ligature of the coronary artery.
The results on the NaOH/physiological saline solution-administered group as a control and the compound-administered group are shown in Table 19.

Row | melting point | Structure (SMILES) | other results
1 |  | CCOc1ccc(-c2nc(-c3ccc(O)c(C(=O)O)c3)cs2)cc1OCC [compound 62, 4-(3-Carboxy-4-hydroxyphenyl)-2-(3,4-diethoxy-phenyl)thiazole] | IC50 ([1]; Table 16, comparative test present compounds vs prior art compounds, NE = not effective): 10 nM; IC50 ([1]; pH 7.4, Table 15, O2- generation, 3x10^-7 M FMLP, cytochalasin B, 37° C., pH 7.4): 10 nM; Activity of creatine phosphokinase in tissue, Mean ± S.E. [2]: 19.53 ± 1.56 U/mg of protein
2 | 143.5 to 144 °C | COc1ccc(-c2nc(-c3ccc4c(c3)N(C)C(=O)CS4)cs2)cc1OC [Example 143, 2-(3,4-dimethoxyphenyl)-4-(4-methyl-2H-1,4-benzothiazin-3(4H)-one-6-yl)thiazole] | 
3 | ≥ 300 °C | O=C1CCc2cc(-c3csc(-c4ccc(C(=O)O)cc4)n3)ccc2N1 [Example 147, 2-(4-carboxyphenyl)-4-(3,4-dihydrocarbostyril-6-yl)thiazole] | 
4 | 94 to 95 °C | CCOc1ccc(-c2nc(C=Cc3ccccc3)cs2)cc1OCC [Example 247, 2-(3,4-diethoxyphenyl)-4-styrylthiazole] | 
5 | 236.2 to 237.2 °C | CCOc1ccc(-c2nc(-c3cc(C(=O)O)ccn3)cs2)cc1OCC [Example 516, 2(3,4-diethoxyphenyl)-4-(4-carboxy-2-pyridyl)thiazole] | 
6 | 109 to 113 °C | CCOc1ccc(-c2nc(-c3cccc(CO)n3)cs2)cc1OCC [Example 454, 2-(3,4-diethoxyphenyl)-4-(2-hydroxymethyl-6-pyridyl)thiazole] | 
7 | 264 to 265 °C | COc1cc(-c2nc(-c3ccc4c(c3)CCC(=O)N4)cs2)ccc1[S+](C)[O-] (stereo not shown) [Example 149, 2-(3-methoxy-4-methylsulfinylphenyl)-4-(3,4-dihydrocarbostyril-6-yl)thiazole] | 
8 | 179 to 180 °C | CCCc1cc(-c2csc(-c3ccc(OCC)c(OCC)c3)n2)cc(C(=O)O)c1O [Example 363, 2-(3,4-diethoxyphenyl)-4-(3-carboxy-4-hydroxy-5-propylphenyl)thiazole] | 
